Reference: patent US6737383B1, “Herbicidal oxadiazolidines” (priority 1999, dated 2004)

Assays:
[1] = tested on: purple nutsedge; test: Test B pre/postemergence purple nutsedge; format: in vivo, Cyperus rotundus
Summary of the method: (§1)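 Herbicidal effect was estimated by eye on a ten-point control scale after plants spent twelve to sixteen days in a greenhouse following soil or foliar treatment. Foliar sprays targeted plants at one to four leaves; all doses were formulated in a non-phytotoxic solvent with surfactant.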

[2] = tested on: smallflower flatsedge; test: Test B flood test smallflower flatsedge; format: in vivo, Cyperus difformis
Summary of the method: (§2)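 Each value is a visual injury score relative to controls, with 10 meaning complete control and 0 no effect. Evaluation took place twelve to sixteen days after the 2-leaf-stage plants were treated and kept in the greenhouse.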

[3] = tested on: rice; test: Test B flood test rice; format: in vivo, Oryza sativa
Summary of the method: as §2

[4] = tested on: velvetleaf; test: Test B pre/postemergence velvetleaf; format: in vivo, Abutilon theophrasti
Summary of the method: as §1

[5] = tested on: corn; test: Test B pre/postemergence corn; format: in vivo, Zea mays
Summary of the method: as §1

[6] = tested on: rape; test: Test B pre/postemergence rape; format: in vivo, Brassica napus
Summary of the method: as §1

[7] = tested on: bamyardgrass; test: Test B flood test barnyardgrass; format: in vivo, Echinochloa crus-galli
Summary of the method: as §2

[8] = tested on: wild oat; test: Test B pre/postemergence wild oat; format: in vivo, Avena fatua
Summary of the method: as §1

[9] = tested on: soybean; test: Test B pre/postemergence soybean; format: in vivo, Glycine max
Summary of the method: as §1

[10] = tested on: wheat; test: Test B pre/postemergence wheat; format: in vivo, Triticum aestivum
Summary of the method: as §1

[11] = tested on: sugar beet; test: Test B pre/postemergence sugar beet; format: in vivo, Beta vulgaris
Summary of the method: as §1

[12] = tested on: crabgrass; test: Test B pre/postemergence crabgrass; format: in vivo, Digitaria sanguinalis
Summary of the method: as §1

[13] = tested on: giant foxtail; test: Test B pre/postemergence giant foxtail; format: in vivo, Setaria faberii
Summary of the method: as §1

[14] = tested on: cocklebur; test: Test B pre/postemergence cocklebur; format: in vivo, Xanthium strumarium
Summary of the method: as §1

[15] = tested on: pigweed; test: Test B pre/postemergence pigweed; format: in vivo, Amaranthus retroflexus
Summary of the method: as §1

[16] = tested on: blackgrass; test: Test B pre/postemergence blackgrass; format: in vivo, Alopecurus myosuroides
Summary of the method: as §1

[17] = tested on: surinam grass; test: Test B pre/postemergence surinam grass; format: in vivo, Brachiaria decumbens
Summary of the method: as §1

[18] = tested on: duck salad; test: Test B flood test duck salad; format: in vivo, Heteranthera limosa
Summary of the method: as §2

[19] = tested on: morningglory; test: Test B pre/postemergence morningglory; format: in vivo, Ipomoea hederacea
Summary of the method: as §1

[20] = Postemergence, Rate 62 g/ha, scale 0 to 10, 0 is no effect, 10 is complete control
[21] = Postemergence, Rate 125 g/ha, scale of 0 to 10 where 0 is no effect and 10 is complete control
[22] = Postemergence, Rate 250 g/ha, scale of 0 to 10, 0 is no effect, 10 is complete control
[23] = Postemergence, Rate 500 g/ha, scale of 0 to 10 where 0 is no effect and 10 is complete control
[24] = Preemergence, Rate 62 g/ha, scale 0 to 10 (0 no effect, 10 complete control)
[25] = Preemergence, Rate 125 g/ha, scale of 0 to 10 where 0 is no effect and 10 is complete control
[26] = Preemergence, Rate 500 g/ha, scale of 0 to 10 where 0 is no effect and 10 is complete control
[27] = Rate 62 g/ha, flood test species, Pre-emergence, visual evaluation after twelve to sixteen days
[28] = Rate 125 g/ha, under heading Pre-emergence, flood test species, visual evaluation after twelve to sixteen days
[29] = Rate 250 g/ha, Pre-emergence (flood test species), scale 0 to 10, 0 is no effect, 10 is complete control
[30] = Rate 500 g/ha, Pre-emergence section of Table B, 0 to 10 scale (0 no effect, 10 complete control)

`CC(C)N(C(=O)n1oc(=O)n(CC(C)[N+](=O)[O-])c1=O)c1ccc(F)cc1F` (centres unmarked) [Compound 603] was tested, and the “Plant response rating, Nutsedge” value [1, 20] was 0, the “Plant response rating, Nutsedge” value [1, 21] was 0 and the “Nutsedge plant response rating” value [1, 22] was 0. For the same compound, the “Plant response rating, Nutsedge” value [1, 23] was 0, the “Nutsedge plant response rating” value [1, 24] was 0 and the “Nutsedge plant response rating” value [1, 25] was 0. For the same compound, the “Plant response rating, Nutsedge” value [1, 26] was 0, the “Plant response rating, S. Flatsedge (0 to 10 scale, 0 is no effect, 10 is complete control)” value [2, 27] was 0 and the “S. Flatsedge plant response rating (0 to 10 scale, 0 is no effect, 10 is complete control)” value [2, 28] was 0. For the same compound, the “S. Flatsedge plant response rating” value [2, 29] was 0, the “S. Flatsedge plant response rating” value [2, 30] was 0 and the “Plant response rating, Rice (0 to 10 scale, 0 is no effect, 10 is complete control)” value [3, 27] was 0. The “Rice plant response rating (0 to 10 scale, 0 is no effect, 10 is complete control)” value [3, 28] was 0, the “Rice plant response rating” value [3, 29] was 0 and the “Rice plant response rating” value [3, 30] was 0. For the same compound, the “Plant response rating, Velvetleaf” value [4, 20] was 0, the “Plant response rating, Velvetleaf” value [4, 21] was 0 and the “Velvetleaf plant response rating” value [4, 22] was 0. For the same compound, the “Plant response rating, Velvetleaf” value [4, 23] was 2, the “Velvetleaf plant response rating” value [4, 24] was 0 and the “Velvetleaf plant response rating” value [4, 25] was 0. For the same compound, the “Plant response rating, Velvetleaf” value [4, 26] was 0, the “Plant response rating, Corn” value [5, 20] was 0 and the “Plant response rating, Corn” value [5, 21] was 0. The “Corn plant response rating” value [5, 22] was 0, the “Plant response rating, Corn” value [5, 23] was 0 and the “Corn plant response rating” value [5, 24] was 0. For the same compound, the “Corn plant response rating” value [5, 25] was 0, the “Corn plant response rating (0 to 10 scale)” value ([5]; Preemergence, Rate 250 g/ha) was 0 and the “Plant response rating, Corn” value [5, 26] was 0. For the same compound, the “Plant response rating, Rape” value [6, 20] was 0, the “Plant response rating, Rape” value [6, 21] was 0 and the “Rape plant response rating” value [6, 22] was 0. The “Plant response rating, Rape” value [6, 23] was 0, the “Rape plant response rating” value [6, 24] was 0 and the “Rape plant response rating” value [6, 25] was 0. The “Plant response rating, Rape” value [6, 26] was 0, the “Plant response rating, Barnyardgrass (0 to 10 scale, 0 is no effect, 10 is complete control)” value [7, 27] was 0 and the “Barnyardgrass plant response rating (0 to 10 scale, 0 is no effect, 10 is complete control)” value [7, 28] was 0. The “Barnyardgrass plant response rating” value [7, 29] was 0, the “Barnyardgrass plant response rating” value [7, 30] was 0 and the “Plant response rating, Wild oats” value [8, 20] was 0. The “Plant response rating, Wild oats” value [8, 21] was 0, the “Wild oats plant response rating” value [8, 22] was 0 and the “Plant response rating, Wild oats” value [8, 23] was 0. The “Wild oats plant response rating” value [8, 24] was 0, the “Wild oats plant response rating” value [8, 25] was 0 and the “Plant response rating, Wild oats” value [8, 26] was 0. For the same compound, the “Plant response rating, Soybean” value [9, 20] was 0, the “Plant response rating, Soybean” value [9, 21] was 0 and the “Soybean plant response rating” value [9, 22] was 2. For the same compound, the “Plant response rating, Soybean” value [9, 23] was 2, the “Soybean plant response rating” value [9, 24] was 0 and the “Soybean plant response rating” value [9, 25] was 0. For the same compound, the “Plant response rating, Soybean” value [9, 26] was 0, the “Plant response rating, Wheat” value [10, 20] was 0 and the “Plant response rating, Wheat” value [10, 21] was 0. The “Wheat plant response rating” value [10, 22] was 0, the “Plant response rating, Wheat” value [10, 23] was 0 and the “Wheat plant response rating” value [10, 24] was 0. For the same compound, the “Wheat plant response rating” value [10, 25] was 0, the “Plant response rating, Wheat” value [10, 26] was 0 and the “Plant response rating, Sugarbeets” value [11, 20] was 0. For the same compound, the “Plant response rating, Sugarbeets” value [11, 21] was 0, the “Sugarbeets plant response rating” value [11, 22] was 0 and the “Plant response rating, Sugarbeets” value [11, 23] was 0. For the same compound, the “Sugarbeets plant response rating” value [11, 24] was 0, the “Sugarbeets plant response rating” value [11, 25] was 0 and the “Plant response rating, Sugarbeets” value [11, 26] was 0. The “Plant response rating, Crabgrass” value [12, 20] was 0, the “Plant response rating, Crabgrass” value [12, 21] was 0 and the “Crabgrass plant response rating” value [12, 22] was 0. For the same compound, the “Plant response rating, Crabgrass” value [12, 23] was 0, the “Crabgrass plant response rating” value [12, 24] was 0 and the “Crabgrass plant response rating” value [12, 25] was 0. The “Plant response rating, Crabgrass” value [12, 26] was 0, the “Plant response rating, Giant foxtail” value [13, 20] was 0 and the “Plant response rating, Giant foxtail” value [13, 21] was 0. The “Giant foxtail plant response rating” value [13, 22] was 0, the “Plant response rating, Giant foxtail” value [13, 23] was 0 and the “Giant foxtail plant response rating” value [13, 24] was 0. For the same compound, the “Giant foxtail plant response rating” value [13, 25] was 0, the “Plant response rating, Giant foxtail” value [13, 26] was 0 and the “Plant response rating, Cocklebur” value [14, 20] was 0. The “Plant response rating, Cocklebur” value [14, 21] was 0, the “Cocklebur plant response rating” value [14, 22] was 0 and the “Plant response rating, Cocklebur” value [14, 23] was 0. For the same compound, the “Cocklebur plant response rating” value [14, 24] was 0, the “Cocklebur plant response rating” value [14, 25] was 0 and the “Cocklebur plant response rating (0 to 10 scale)” value ([14]; Preemergence, Rate 250 g/ha) was 0. The “Plant response rating, Cocklebur” value [14, 26] was 0, the “Plant response rating, Redroot pigweed” value [15, 20] was 0 and the “Plant response rating, Redroot pigweed” value [15, 21] was 0. The “Redroot pigweed plant response rating” value [15, 22] was 0, the “Plant response rating, Redroot pigweed” value [15, 23] was 0 and the “Redroot pigweed plant response rating” value [15, 24] was 0. For the same compound, the “Redroot pigweed plant response rating” value [15, 25] was 0, the “Plant response rating, Redroot pigweed” value [15, 26] was 0 and the “Plant response rating, Blackgrass” value [16, 20] was 0. For the same compound, the “Plant response rating, Blackgrass” value [16, 21] was 0, the “Blackgrass plant response rating” value [16, 22] was 0 and the “Plant response rating, Blackgrass” value [16, 23] was 0. The “Blackgrass plant response rating” value [16, 24] was 0, the “Blackgrass plant response rating” value [16, 25] was 0 and the “Blackgrass plant response rating (0 to 10 scale)” value ([16]; Preemergence, Rate 250 g/ha) was 0. For the same compound, the “Blackgrass plant response rating” value [16, 26] was 0, the “Plant response rating, B. signalgrass” value [17, 20] was 0 and the “Plant response rating, B. signalgrass” value [17, 21] was 0. For the same compound, the “B. signalgrass plant response rating” value [17, 22] was 0, the “Plant response rating, B. signalgrass” value [17, 23] was 0 and the “B. signalgrass plant response rating” value [17, 24] was 0. The “B. signalgrass plant response rating” value [17, 25] was 0, the “B. signalgrass plant response rating (0 to 10 scale, 0 is no effect, 10 is complete control)” value ([17]; Preemergence, Rate 250 g/ha) was 0 and the “B. signalgrass plant response rating” value [17, 26] was 0. The “Plant response rating, Ducksalad (0 to 10 scale, 0 is no effect, 10 is complete control)” value [18, 27] was 0, the “Ducksalad plant response rating (0 to 10 scale, 0 is no effect, 10 is complete control)” value [18, 28] was 0 and the “Ducksalad plant response rating” value [18, 29] was 0. The “Ducksalad plant response rating” value [18, 30] was 0, the “Plant response rating, Morningglory” value [19, 20] was 0 and the “Plant response rating, Morningglory” value [19, 21] was 0. For the same compound, the “Morningglory plant response rating” value [19, 22] was 2, the “Plant response rating, Morningglory” value [19, 23] was 3 and the “Morningglory plant response rating” value [19, 24] was 0. The “Morningglory plant response rating” value [19, 25] was 0 and the “Plant response rating, Morningglory” value [19, 26] was 0.
